From US8188126B2, “Imidazolic compounds and use thereof as alpha-2 adrenergic receptors” (Pierre Fabre Medicament, priority 2002, dated 2012)

Key:
rats = assay: Morris water maze test (spatial memory, probe trial); type: in vivo; details: for Effect on spatial memory processes (in words): i.p. after training sessions of days 1 and 2; for Increase in spatial memory performance: probe trial on day 3 after two training days
From the text: Morris Water Maze—Basic Principles of the Test
In the animal test paradigm, rats are placed into a circular pool containing water and are required to find an escape platform just beneath the surface of the water and therefore invisible to the animal. The performances are dependent on the number of training days.
Morris Water Maze—Detailed Protocol
The water maze test was adapted from the original protocol of Morris (1981). The test apparatus consisted of a circular fibreglass tank (130 cm in diameter, 50 cm deep). The pool was filled to a height of 30 cm with water at room temperature (21-22° C.). The pool was divided into four virtual quadrants (Q1, Q2, Q3 and Q4) of equal surface area. A transparent escape platform made of Plexiglas (10 cm in diameter, 29 cm high) was placed in a fixed location in the tank, 1 cm below the water surface. […] Many extra-maze cues surrounded the maze and were available for the rats to use in locating the escape platform. On the training trials, the platform remained in a constant location in the centre of one quadrant (Q4) equidistant from the centre and the edge of the pool. Each rat received three trials/day for 1, 2, 3 or 4 days. Each training trial involved placing the rat into the pool facing the wall at one of the 3 quadrants Q1, Q2 and Q3. A different starting point was randomly used on each trial. The rats were allowed to swim freely until they found the escape platform. The latency to find the hidden platform was recorded and used as a measure of acquisition of the task. […] The intertrial interval was 20 sec during which the rat remained on the platform. Twenty hours after the last training trial, the platform was removed from the pool, the rats were allowed to swim for 60 sec in the pool and the time spent in the target quadrant Q4 (the quadrant in which the platform was during training) was recorded. The percent time spent in the previous training quadrant Q4 was used as an index of memory. The higher the percentage, the better the memory was considered to be (Yavich L., Sirviö J., Haapalinna A., Puumala T., Koivisto E., Heinonen E., Riekkinen P. Jr. (1996) The systemic administration of tacrine or selegeline facilitate spatial learning in aged Fisher 344 rats. J Neural Transm 103: 619-626).
Pharmacological Treatment and Statistical Analysis
Rats received two training days and were tested in a probe trial, without platform, on the third day. […] Results were expressed as the mean±standard error of the mean (SEM) of performance (latency to find the platform and percentage time spent in target quadrant) and were analysed by one-way analysis of variance, with drug treatment as the factor, followed by a 2-tailed Student t-test (GB-STAT, Friedman P. (1991) GB-STAT: computer aided statistics & graphics, Ver 3.0. Dynamic Microsystems, Inc., Silver Spring). In the probe trial, without platform, results were also compared to chance performance (25%) by a 1-sample Student t-test (GB-STAT, Friedman, 1991). Results obtained with compounds I-1 (Example 4), (−)-1-1 (Example 6), (+)-1-1 (Example 5) and 1-2 (Example 7): […]

[1] = test system: scopolamine-induced memory deficiency; assay: Scopolamine-induced memory deficiency test (passive avoidance); type: in vivo; details: rats
From the text: Scopolamine-Induced Memory Deficiency Test. Scopolamine has amnesiac properties in animals and humans. In this way, its administration to healthy humans induces certain symptoms similar to those observed in Alzheimer's disease. Therefore, the scopolamine-induced memory deficiency is used as an experimental pharmacological model of the memory disorders observed in the course of this condition. Scopolamine reduces acquisition, memorisation and recall capacities in a passive avoidance test in rats. It consists of measuring the hesitancy, after learning, shown by an animal to enter a dark compartment in which it receives a low-intensity electric shock. The administration of scopolamine does away with this hesitancy and the compounds studied inhibit the effect of scopolamine. The experimental protocol used is described in Psychopharmacol. 1992, 106, 26-30.

human alpha-2A receptor = molecular target: T1, human alpha-2A receptor (Homo sapiens, UniProt P08913); assay: Bonds with alpha-2 adrenergic receptors ([3H]RX 821002 binding, C6 cell membranes); details: 2 nM [3H]RX 821002, C6 cell membranes expressing human alpha-2A receptor, 30 min at 25° C.; read-out: Affinity (pKi) Alpha-2A (converted)
T1 construct: expressed in transfected cells; host or cells: C6 cells (rat glioma, by own knowledge) continuously expressing the human receptor; membranes
T1 sequence (P08913 1-465): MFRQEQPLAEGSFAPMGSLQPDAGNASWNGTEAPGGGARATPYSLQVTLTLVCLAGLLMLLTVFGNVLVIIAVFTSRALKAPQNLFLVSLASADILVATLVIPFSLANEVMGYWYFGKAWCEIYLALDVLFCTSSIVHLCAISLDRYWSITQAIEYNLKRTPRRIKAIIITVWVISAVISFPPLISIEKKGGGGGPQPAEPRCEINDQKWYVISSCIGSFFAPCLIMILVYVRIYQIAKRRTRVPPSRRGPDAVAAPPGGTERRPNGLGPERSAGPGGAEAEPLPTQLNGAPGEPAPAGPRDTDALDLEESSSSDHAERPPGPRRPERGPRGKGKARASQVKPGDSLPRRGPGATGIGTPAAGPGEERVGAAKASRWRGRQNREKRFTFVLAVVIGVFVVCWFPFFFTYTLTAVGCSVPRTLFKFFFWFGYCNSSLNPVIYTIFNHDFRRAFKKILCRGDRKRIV
Method: Bonds with Alpha-2 Adrenergic Receptors
The C6 cell membranes continuously expressing the human alpha-2A receptor are prepared in Tris-HCl (pH=7.6). The bond tests are conducted with 2 nM [3H]RX 821002. The incubation medium consists of 0.4 ml of cell membranes (10 μg of proteins), 0.05 ml of radioligand and 0.05 ml of test product or phentolamine (10 μM) to determine the non-specific bond. The reaction is stopped after 30 minutes of incubation at 25° C. by adding 3 ml of Tris-HCl, 50 mM (pH=7.6), cold, followed by filtration on Whatman filters, GF/B using a Brandel. The Ki values are calculated according to the equation Ki=IC50/(1+C/Kd) where C is the concentration and Kd the dissociation constant, pKi=−log Ki. Under these conditions, the compounds according to the invention appear to have a strong affinity for human alpha-2A adrenergic subtype receptors.

[2] = molecular target: T2, human alpha-2A adrenergic receptors (Homo sapiens, UniProt P08913); assay: Measurement of alpha-2 adrenergic receptor activation (GTPγS response on membrane preparations); type: biochemical; details: expressed with reference to (−)-adrenaline (maximum stimulation = +100), read-out: Intrinsic activity % stimulated
T2 construct: expressed in transfected cells; host or cells: membrane preparations
T2 sequence (P08913 1-465): T1 sequence (P08913 1-465)
Method: Measurement of Alpha-2 Adrenergic Receptor Activation
The GTPγS responses are produced on membrane preparations in 20 mM HEPES (pH=7.4) with 30 [mu]M of GDP, 100 mM of NaCl, 3 mM of MgCl2 and 0.2 mM of ascorbic acid. The maximum GTPγS stimulation is determined in the presence of […] of (−)-adrenaline and calculated with respect to the basal GTPγS response. The results are expressed with reference to adrenaline or RX 811059. Under these conditions, the compounds according to the invention are distinguished from the majority of the compounds according to the prior art in that they behave more like reverse agonists on human alpha-2A adrenergic receptors (see table above).

Structure (SMILES)	Effect on spatial memory processes (in words) (rats)	Increase in spatial memory performance (rats; 2.5 mg/kg i.p. immediately after training sessions) [%]	Scopolamine memory deficiency % aplitude of effect ([1]; dose 2.5 mg/kg i.p.)	Ki (human alpha-2A receptor) [nM]	Emax [2] [%]	Increase in spatial memory performance (rats; 2.54 mg/kg i.p. immediately after training sessions) [%]	Scopolamine memory deficiency % aplitude of effect ([1]; dose 0.63 mg/kg i.p.)	Scopolamine memory deficiency % aplitude of effect ([1]; dose 0.16 mg/kg i.p.)	Increase in spatial memory performance (rats; 0.16 mg/kg i.p. immediately after training sessions) [%]	Increase in spatial memory performance (rats; 0.63 and 2.5 mg/kg i.p. immediately after training sessions)
c1ccc2c(c1)C1CC1(c1cnc[nH]1)C21CC1 (stereo not drawn) [Compound 1-1, 4-(6-spiro-1′-cyclopropane-1a,6-dihydro-1H-cyclopropa[a]inden-6a-yl)-1H-imidazole]	promnesic effect	46	+122%	0.316	14					
C[C@@H]1[C@H]2c3ccccc3C3(CC3)[C@@]12c1c[nH]cn1 (relative stereo) [Compound 1-2, 4-(1-exo-methyl-6-spiro-1′-cyclopropane-1a,6-dihydro-1H-cyclopropa[a]inden-6a-yl)-1H-imidazole]	promnesic effect			7.94	7	42	+201%			
Fc1ccc2c(c1)C1(CC1)C1(c3c[nH]cn3)CC21 (stereo not drawn) [Compound 1-5, 4-(4-fluoro-6-spiro-t-cyclopropane-1a,6-dihydro-1H-cyclopropa[a]inden-6a-yl)-1H-imidazole]				0.316	-10		+241%			
COc1cc2c(cc1OC)C(=O)C(CC1CCN(Cc3ccccc3)CC1)C2 (stereo not drawn) [Donepezil, reference compound]								+67%		
c1ccc2c(c1)C1CC1(c1c[nH]cn1)C21CC1 (single isomer, unassigned; (+)) [(+)-1-1, (+)-4-(6-spiro-1′-cyclopropane-1a,6-dihydro-1H-cyclopropa[a]inden-6a-yl)-1H-imidazole]	promnesic effect								17	
c1ccc2c(c1)C1CC1(c1cnc[nH]1)C21CC1 (single isomer, unassigned; (-)) [(-)-1-1, (−)-4-(6-spiro-1′-cyclopropane-1a,6-dihydro-1H-cyclopropa[a]inden-6a-yl)-1H-imidazole]	promnesic effect		+138%	2.51	37					up to 48%
